Data reported in patent publication US20260232666A1, “COMPOSITIONS AND METHODS FOR INHIBITION OF RAS” (TheRas, Inc., priority 2023, published 2026).

How the values were obtained:
[1] = molecular target: T1, Avi-KRAS G12C (1-169) GppNHp/RAF1 RBD-3×FLAG (52-151) (Homo sapiens, UniProt P01116, G12C); assay: Raf1 RBD-KRAS G12C-GppNHp disruption assay (protein:protein interaction HTRF); format: biochemical
T1 construct: Avi-KRAS G12C (1-169) GppNHp; Avi (N)
Protocol: Biological Example 2: Disrupting KRAS G12C-Effector Binding (Protein: Protein Interaction HTRF Assay)
A protein: protein interaction (PPI) Homogeneous Time Resolved Fluorescence (HTRF) assay was used to determine the effectiveness of compounds of the present disclosure in disrupting KRAS G12C protein and effector (RAF1 Ras Binding Domain (RBD)) binding.
The HTRF assay used the following reagents and proteins: 50 nM Avi-KRAS G12C (1-169) GppNHp/RAF1 RBD-3×FLAG (52-151); 35 nM Avi-PI3K RBD-3×FLAG; Assay Buffer: 50 mM Tris pH 7.5, 100 mM NaCl, 5 mM MgCl2, 0.1% BSA, 0.01% Tween 20, 10% DMSO; Bead Buffer: 50 mM Tris pH 7.5, 0.01% Tween 20; Assay volume: 20 μL (384 well plate-low volume format); and Compound titration: 30-0.02 μM, 3× dilution series.
The HTRF assay employed the following protocol:
Compounds were dispensed in assay plate (384-well, Grenier Bio-One #784075) using Echo (model 555) with dose response settings: 200 nL final volume, titration from 100 μM as a 10-point dilution series. KRAS proteins were prepared in assay buffer, and dispensed on plates, 5 μL per well, then incubated for 1 h at room temperature, with 700 rpm shaking. RAF1 RBD were prepared in assay buffer, dispensed onto plates, 5 μL per well, and then incubated for 1 h at room temperature, with 700 rpm shaking. Reagent mix was then prepared and dispensed on plates, 10 μL per well, and then incubated for 1 h at room temperature, with 700 rpm shaking.
Plates were analyzed on an Envision plate reader using the following setting: Excitation 320 nm, Bandwidth 75 nm; Emission 615 nm, Bandwidth 85 nm; Gain 100%; Flashes 100; Lag 60 μs. Data was reported as percentage of activity, with DMSO as 100%. Data was plotted and analyzed using Prism 8.
The percent of modification of GppNHp, GTP, or GDP loaded KRAS G12C by MALDI-TOF MS, biochemical Raf1 RBD-KRAS G12C-GppNHp disruption assay IC50, and pERK inhibition IC50 of selected compounds described herein are shown in Table 4. For percent of modification at 15 minutes (MALDI-TOF MS) of GppNHp, GTP, or GDP loaded KRAS G12C: A: percent of modification ≥70%; B: 50≤percent of modification <70%; C: 10%≤percent of modification <50%; D: percent of modification <10%. […] For pERK inhibition in H358 cell assay: A: IC50≤0.1 μM; B: 0.1 μM<IC50≤1 μM; C: IC50>1 μM. Blanks in the table represent that compound was not tested in the indicated assay.

pERK in NCI-H358 cells = assay: Cell-based pERK HTRF assay (pERK inhibition in H358 cells); conditions: 30 min incubation
Method in brief: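 NCI-H358 cells were seeded at 4×10^4 cells/well in RPMI/10% FBS, then treated next day for 30 min at 0.25% DMSO (9-point, 3-fold series from 75 μM). Lysates were read by HTRF (d2/Eu cryptate antibody pair, 615 nm emission) after 4–24 h at room temperature to give pERK IC50.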

[2] = molecular target: T2, GppNHp-loaded KRAS4b (amino acids 1-169) G12C/C118S protein (Homo sapiens, UniProt P01116, C118S/G12C); assay: Covalent cysteine 12 modification by MALDI-TOF MS, GppNHp-loaded KRAS G12C; format: binding; conditions: 15 minutes reaction time point
T2 construct: KRAS4b (amino acids 1-169) G12C/C118S protein; made in house
Method in brief: (§1)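 Percent modification comes from MALDI-TOF peak heights: the compound-adduct peak divided by the sum of the remaining-protein and adduct peaks. Reactions contained 1 μM protein and compound at a 1:2.5 ratio, in pH 7.3 HEPES buffer with NaCl and MgCl2, held 15 min at room temperature.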

[3] = molecular target: T3, GDP-loaded KRAS4b (amino acids 1-169) G12C/C118S protein (Homo sapiens, UniProt P01116, C118S/G12C); assay: Covalent cysteine 12 modification by MALDI-TOF MS, GDP-loaded KRAS G12C; format: binding; conditions: 15 minutes reaction time point
T3 construct: KRAS4b (amino acids 1-169) G12C/C118S protein; made in house
Method in brief: as §1

[4] = molecular target: T4, GTP-loaded KRAS4b (amino acids 1-169) G12C/C118S protein (Homo sapiens, UniProt P01116, C118S/G12C); assay: Covalent cysteine 12 modification by MALDI-TOF MS, GTP-loaded KRAS G12C; format: binding; conditions: 15 minutes reaction time point
T4 construct: KRAS4b (amino acids 1-169) G12C/C118S protein; made in house
Method in brief: as §1

IC50 [1] | IC50 (pERK in NCI-H358 cells) | IC50 (pERK in NCI-H358 cells; Homo sapiens, NCI-H358, 0.5 h) | GppNHp-KRAS G12C percent of modification [2] | GDP-KRAS G12C percent of modification [3] | GTP-KRAS G12C percent of modification [4] | SMILES
500 to 5000 nM | 100 to 1000 nM | – | – | – | – | C=CC(=O)N1CC[C@@H](N(C)c2nc(OC[C@@]34CCCN3C[C@H](F)C4)nc3c(F)c(-c4ccc(F)c5sc(N)c(C#N)c45)c(C(F)(F)F)cc23)[C@@H]1C (atropisomer, axis not shown) [Compound 71]
< 500 nM | – | – | – | – | – | C=CC(=O)N1CC[C@@H](N(C)c2nc(OC[C@@]34CCCN3C[C@H](F)C4)nc3cc(-c4ccc(F)c5sc(N)c(C#N)c45)c(F)cc23)[C@H]1C [Compound 15]
< 500 nM | – | < 100 nM | – | – | – | C=CC(=O)N1CC[C@@H](N(C)c2nc(OC[C@@]34CCCN3C[C@H](F)C4)nc3cc(-c4ccc(F)c5sc(N)c(C#N)c45)c(C#N)cc23)[C@H]1C [Compound 16]
< 500 nM | – | < 100 nM | A (percent of modification ≥70%) | – | – | C=CC(=O)N1CC[C@@H](N(C)c2nc(OC[C@@H]3CCCN3C)nc3c(F)c(-c4ccc(F)c5sc(N)c(C#N)c45)c(C(F)(F)F)cc23)[C@@H]1C [Compound 38]
< 500 nM | – | < 100 nM | A (percent of modification ≥70%) | – | – | C=CC(=O)N1CC[C@@H](N(C)c2nc(OC[C@@]34CCCN3C[C@H](F)C4)nc3c(F)c(-c4ccc(F)c5sc(N)c(C#N)c45)ccc23)[C@@H]1C [Compound 43]
< 500 nM | – | < 100 nM | – | – | – | C=CC(=O)N1CC[C@@H](N(C)c2nc(OC[C@]34CCCN3C[C@H](F)C4)nc3c(F)c(-c4ccc(F)c5sc(N)c(C#N)c45)c(C(F)(F)F)cc23)[C@H]1C [Compound 157]

Further lines, the compound ahead of its results:

SMILES | IC50 [1] | IC50 (pERK in NCI-H358 cells) | IC50 (pERK in NCI-H358 cells; Homo sapiens, NCI-H358, 0.5 h) | GppNHp-KRAS G12C percent of modification [2] | GDP-KRAS G12C percent of modification [3] | GTP-KRAS G12C percent of modification [4]
[2H]C1([2H])CCC2(C([2H])([2H])Oc3nc(N4CC(C)N(C(=O)C=C)CC4C)c4cc(C(F)(F)F)c(-c5ccc(F)c6sc(N)c(C#N)c56)c(F)c4n3)CC(F)CN12 (stereo not shown) [Compound 96] | < 500 nM | – | < 100 nM | – | – | –
[2H]C1([2H])CN2C[C@H](F)C[C@]2(COc2nc(N(CC)[C@@H]3CCN(C(=O)C=C)[C@@H]3C)c3cc(F)c(-c4ccc(F)c5sc(N)c(C#N)c45)cc3n2)C1 [Compound 123] | < 500 nM | – | < 100 nM | – | – | –
[2H]C1([2H])CN2C[C@H](F)C[C@]2(COc2nc(N3C[C@@H](C)N(C(=O)C=C)C[C@@H]3C)c3cc(C(F)(F)F)c(-c4ccc(F)c5sc(N)c(C#N)c45)c(F)c3n2)C1 [Compound 125] | < 500 nM | – | – | A (percent of modification ≥70%) | – | –
C=CC(=O)N1CC[C@@H](N(C)c2nc(OC[C@@H]3CC(=C(F)F)CN3C)nc3c(F)c(-c4ccc(F)c5sc(N)c(C#N)c45)c(C(F)(F)F)cc23)[C@H]1C [Compound 205] | – | – | < 100 nM | B (50≤percent of modification <70%) | C (10%≤percent of modification <50%) | C (10%≤percent of modification <50%)
C=CC(=O)N1CCC(N(C)c2nc(OC(C)C3CC(=C(F)F)CN3C)nc3c(F)c(-c4ccc(F)c5sc(N)c(C#N)c45)c(Cl)cc23)C1C (stereo not shown) [Compound 206] | – | – | 100 to 1000 nM | A (percent of modification ≥70%) | A (percent of modification ≥70%) | B (50≤percent of modification <70%)
C=CC(=O)N1CC[C@@H](N(C)c2nc(O[C@@H](C)[C@@H]3C(=C(F)F)CCN3C)nc3c(F)c(-c4ccc(F)c5sc(N)c(C#N)c45)c(C(F)(F)F)cc23)[C@H]1C [Compound 207] | – | – | < 100 nM | B (50≤percent of modification <70%) | B (50≤percent of modification <70%) | C (10%≤percent of modification <50%)
